# Where “and” joins values, the source holds several entries; their conditions need not be identical. Equal entries are not always repeated. Where two headings read alike, the source gives them in different places.
# Legend:
# S pneumoniae = test: MIC, microbiological activity (Table 3); assay type: cell-based; settings: L 44 S pneumoniae UC41
# C albicans = test: MIC, microbiological activity (Table 3); assay type: cell-based; settings: L 145 C albicans SKF2270
# E faecalis = test: MIC, microbiological activity (Table 3); assay type: cell-based
# S pyogenes = test: MIC, microbiological activity (Table 3); assay type: cell-based; settings: L 49 S pyogenes C203
# E. faecium Van-A = test: MIC, microbiological activity (Table 3); assay type: cell-based; settings: L 1666 E. faecium Van-A
# Staph. aureus = test: ED50 against Staph. aureus murine septicaemias (Table 2); assay type: in vivo
# B subtilis = test: MIC, microbiological activity (Table 3); assay type: cell-based; settings: L 102 B subtilis ATCC
# P vulgaris = test: MIC, microbiological activity (Table 3); assay type: cell-based; settings: L 79 P vulgaris
# P aeruginosas = test: MIC, microbiological activity (Table 3); assay type: cell-based; settings: L 4 P aeruginosas ATCC10145
# S haemolyticus = test: MIC, microbiological activity (Table 3); assay type: cell-based; settings: L 602 S haemolyticus clin. isolate
# S epidermidis = test: MIC, microbiological activity (Table 3); assay type: cell-based; settings: L 147 S epidermidis
# E coli = test: MIC, microbiological activity (Table 3); assay type: cell-based; settings: G 16440 E coli iperperm
# S aureus = test: MIC, microbiological activity (Tables 2, 3); assay type: cell-based
# human albumin = human albumin (Homo sapiens, UniProt P02768); test: Protein binding by isothermal titration microcalorimetry (Tables 27, 28); settings: for Calculated percent Binding: Human albumin (6×10^−4 M)
# Experimental: (§5) Integrated heat effects, after correction for heats of dilution, were analyzed by non-linear regression using a simple single-site binding model with the standard Microcal ORIGIN software package. Raw data (μcal/sec) for each injection were integrated to give the total heat effect per addition, then divided by amount of injectant to give kcal/mole of injectant. The same integration was applied for control dilution effects, and this was subtracted from the actual titration data. This provided a differential of the binding curve in which the extent of binding is proportional to the total heat liberated (or absorbed). This was then analyzed by non-linear regression methods in terms of various standard binding models. The simplest model assumes simple non-competitive binding equilibrium, and gives three parameters:
# human α-glycoprotein = test: as above; settings: for Calculated percent Binding: Human α-glycoprotein ([…]10^−5 M)
# Experimental: as §5
# [1] = ESI-MS of multimers in solution (concentration, pH, ionic strength); assay type: physicochemical
# Experimental: Experiments were performed using an Applied Biosystem API III+ mass spectrometer equipped with a TurboIonSpray source, a Triple Quadrupole analyzer, operating in positive ion mode.
# The mass spectra were obtained in electrospray positive mode on a Finnigan LCQ^Deca ion trap instrument previously tuned and calibrated in electrospray mode using Ultramark 1621, caffeine and MRFA (L-metionyl-arginyl-phenilalanyl-arginine).
# The mass spectra were obtained in electrospray positive mode on a Finnigan LCQ^Deca ion trap instrument previous tuned and calibrated in electrospray mode using Ultramark 1621, caffeine and MRFA (L-metionyl-arginyl-phenilalanyl-arginine).
# [2] = system: catheter-related blood stream infection (CR-BSI) due to gram-positive bacterial pathogens; test: CR-BSI trial: efficacy (overall, clinical, microbiological response); assay type: in vivo, human; settings: microbiological ITT population at TOC; dalbavancin 1000 mg Day 1 + 500 mg Day 8 IV; vancomycin 1000 mg IV every 12 hours
# Experimental: Patients with CR-BSI due to suspected or known Gram-positive pathogen(s) who met the inclusion/exclusion criteria were randomized to one of two treatment arms in this open-label, comparative, multi-center study. Dalbavancin was administered once weekly in weekly dalbavancin and comparator (vancomycin) was administered daily in vancomycin. Catheter removal was required for patients with Staphylococcus aureus infection; catheter management was left to the Investigator's discretion for patients with coagulase-negative staphylococci (CoNS) infection. Efficacy was clinically based on the improvement or resolution of clinical signs and symptoms of CR-BSI such that no additional antibacterials were warranted, and microbiologically on the eradication or presence of the baseline or other pathogens.
# The treatment lasted for 14 days for patients with S. aureus infection, and 7 to 14 days for all other pathogens. […] Vancomycin was administered intravenously with a 1000 mg dose every 12 hours (or dose-adjusted based on drug levels).
# Efficacy was evaluated based on clinical and microbiological responses.
# [3] = system: Escherichia coli, Proteus vulgaris, Pseudomonas aeruginosas; test: MIC by broth microdilution (NCCLS) of IsoB0 and reference compounds (Table 44), non-gram-positive bacterial strains; assay type: cell-based
# Experimental: (§1) MICs were determined by the broth microdilution methodology following the standard NCCLS procedure, with or without 30% bovine serum, using bacterial inocula of approximately 5×10^5 CFU/mL. Tests were read after 20-24 h incubation at 35° C.
# [4] = system: Candida albicans SKF 2270; test: MIC by broth microdilution (NCCLS) (Tables 42, 44); assay type: cell-based
# [5] = system: panel of gram-positive bacteria; test: MIC by broth microdilution (NCCLS) of IsoB0 and reference compounds (Table 44); assay type: cell-based
# Experimental: Müller Hinton broth (Difco Laboratories, Detroit, Mich., USA) adjusted with CaCl2 and MgCl2 to a final concentrations of 20 mg/L and 10 mg/L respectively.
# The microorganisms used are reference standard strains from the American Type Culture Collection (ATCC, Rockville, USA), Smith Kline and French Laboratories (SKF) and the Upjohn Company (UC, Kalamazoo, Mich., USA).
# as §1
# [6] = system: N,N′-diacetyl-Lys-D-Ala-D-Ala; test: Isothermal titration calorimetry of tri-peptide binding, with and without HSA (Table 39); settings: for Kd: read-out: Kdiss
# Experimental: Antibiotics and peptides were dissolved in aqueous buffer (20 mM Na phosphate, 150 mM NaCl, pH 7.4) containing HSA, with gentle stirring immediately before each experiment. Peptide concentrations were determined by weight. […] HSA concentrations were determined by UV absorbance (HSA, ε280=37,700; A280^1%=5.44). Spectra were recorded at room temperature in 1 cm pathlength quartz cuvettes using Shimadzu UV-160A or UV-1601 spectrophotometers, with samples diluted quantitatively with buffer if necessary to give absorbance in the 0.1-1 A range.
# Isothermal titration calorimetry was performed using a Microcal VP-ITC instrument at 25° C. and 37° C. using standard operating procedures. […] Samples were degassed gently prior to loading to prevent bubble formation in the calorimeter cell. […] Control experiments involved injection of ligand into buffer under identical conditions to determine heats of peptide dilution, and these values were used for correction of raw binding data prior to analysis.
# CR-BSI trial: safety = settings: in vivo
# Experimental: Safety was evaluated by the collection and analysis of data on adverse events (AEs), clinical laboratory tests, physical examinations, vital signs, and ECGs.
# gram positive bacteria [7] = settings: NCCLS M100 S-12, cited from earlier work
# gram-negative bacteria = test: MIC by broth microdilution (NCCLS) (Table 42); assay type: cell-based
# Experimental: (§2) Before dissolution, each sample was analyzed by HPLC and quantified.
# (§3) The microorganisms used were reference strains obtained from the American Type Culture Collection (ATCC) (Rockville, Md.), SmithKline and French Laboratories (SKF), and the Upjohn Company (UC) (Kalamazoo, Mich.).
# (§4) MICs were determined by the broth microdilution methodology following the standard NCCLS procedure (NCCLS Document M7-A6, Vol. 23, No. 2, “Methods for dilution antimicrobial susceptibility tests for bacteria that grow aerobically.” Approved Guideline. January 2003, which can be herein incorporated by reference in its entirety), with or without 30% adult bovine serum (BS) (PAA Laboratories GMBH, Haidmannweg Pasching Austria), using bacterial innocula at approximately 5×10^5 CFU/ml. The media employed included cation-adjusted Müller Hinton broth (Difco Laboratories, Detroit, Mich.) that was used that was adjusted with CaCl2 and MgCl2 to a final concentration of 20 mg/L and 10 mg/L, respectively. Tests were read following 20-24 hours of incubation at 35° C.
# gram positive bacteria [8] = test: MIC by broth microdilution (NCCLS), with or without 30% bovine serum (Table 42); assay type: cell-based
# Experimental: as §2, §3, §4
# [9] = Enterococcus faecalis ATCC 7080
# [10] = Enterococcus faecalis, ATCC29212
# [11] = Staphylococcus aureus, ATCC19636
# [12] = Staphylococcus aureus, ATCC29213
# [13] = Staphylococcus epidermidis, ATCC12228
# Chain of human albumin (P02768 25-609): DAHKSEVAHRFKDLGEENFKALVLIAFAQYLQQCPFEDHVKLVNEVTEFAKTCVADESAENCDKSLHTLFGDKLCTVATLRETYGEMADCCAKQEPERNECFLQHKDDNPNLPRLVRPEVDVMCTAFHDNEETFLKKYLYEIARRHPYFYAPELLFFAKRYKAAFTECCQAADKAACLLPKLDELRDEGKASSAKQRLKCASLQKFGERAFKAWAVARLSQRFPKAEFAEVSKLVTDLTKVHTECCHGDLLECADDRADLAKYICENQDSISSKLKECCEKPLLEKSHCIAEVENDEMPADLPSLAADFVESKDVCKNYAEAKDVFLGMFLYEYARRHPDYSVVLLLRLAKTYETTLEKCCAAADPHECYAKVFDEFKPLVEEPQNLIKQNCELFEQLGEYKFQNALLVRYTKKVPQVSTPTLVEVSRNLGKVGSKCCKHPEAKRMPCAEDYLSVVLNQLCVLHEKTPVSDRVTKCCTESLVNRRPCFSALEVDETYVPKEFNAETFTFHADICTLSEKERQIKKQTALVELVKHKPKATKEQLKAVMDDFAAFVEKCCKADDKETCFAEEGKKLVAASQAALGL
molecule,measurement,setting,value
CN[C@H]1C(=O)N[C@@H]2Cc3ccc(cc3)Oc3cc4cc(c3O)Oc3ccc(cc3Cl)[C@@H](O)[C@@H]3NC(=O)[C@H](NC(=O)[C@@H]4NC(=O)[C@@H](NC2=O)c2cc(cc(O)c2Cl)Oc2cc1ccc2O)c1ccc(O)c(c1)-c1c(O[C@H]2O[C@H](CO)[C@@H](O)[C@H](O)[C@@H]2O)cc(O)cc1[C@@H](C(=O)NCCCN(C)C)NC3=O [MAG],MIC,S pneumoniae,1 µg/mL and 0.5 µg/mL
same,MIC,C albicans,>32->32->32 μg/ml
same,MIC,E faecalis; L 149 E faecalis,0.25 µg/mL and 0.5 µg/mL
same,MIC,E faecalis; L 562 E faecalis clin. isolate,32->32->32 μg/ml
same,MIC,S pyogenes,0.5 µg/mL and 0.25 µg/mL
same,MIC,E. faecium Van-A,>32->32->32 μg/ml
same,ED50,"Staph. aureus; MRSA Staph. aureus 3817, treatment once within 10 min from infection by sc route",1.6 mg/kg
same,ED50,"Staph. aureus; MSSA Staph. aureus Smith 819, treatment once within 10 min from infection by sc route",0.3 mg/kg
same,MIC,B subtilis,0.13-0.13 μg/ml
same,MIC,P vulgaris,>32->32->32 μg/ml
same,MIC,P aeruginosas,>32->32->32 μg/ml
same,MIC,S haemolyticus,>32-32 μg/ml
same,MIC,S epidermidis,0.25 µg/mL and 0.13 µg/mL
same,MIC,E coli,8 µg/mL and 16 µg/mL
same,MIC,S aureus; 3797 S aureus clin. Isolate GISA,0.5-0.5 μg/ml
same,MIC,S aureus; 3817 S aureus clin. Isolate,0.5 µg/mL
same,MIC,S aureus; L 613 S aureus clin. isolate,1 µg/mL and 0.5 µg/mL
same,MIC,S aureus; L 819 S aureus Smith,0.5 µg/mL and 0.25 µg/mL
same,MIC,S aureus; L 819 S aureus Smith 50% serum,1-1-1 μg/ml
same,MIC,S aureus; MRSA Staph. aureus 3817,0.5 µg/mL
same,MIC,S aureus; MSSA Staph. aureus Smith 819,0.5 µg/mL
Teicoplanin,Calculated percent Binding,human albumin; antibiotic 1 μM,98.3%
same,Calculated percent Binding,human albumin; antibiotic 10 μM,98.3%
same,Calculated percent Binding,human albumin; antibiotic 100 μM,98.0%
same,apparent binding affinity (Ka),"human albumin; Human albumin, 25° C., pH 7.4",0.96 (±0.08) ×10^5 M^−1
same,Calculated percent Binding,human α-glycoprotein; antibiotic 1 μM,9.6%
same,Calculated percent Binding,human α-glycoprotein; antibiotic 10 μM,9.1%
same,Calculated percent Binding,human α-glycoprotein; antibiotic 100 μM,6.0%
same,apparent binding affinity (Ka),"human α-glycoprotein; α-glycoprotein, 25° C.",0.07 (±0.01) ×10^5 M^−1
same,multimers in solution (ESI-MS),[1],does not show multimeric complexes
CN[C@H](CC(C)C)C(=O)N[C@H]1C(=O)N[C@@H](CC(N)=O)C(=O)N[C@H]2C(=O)N[C@H]3C(=O)N[C@H](C(=O)N[C@H](C(=O)O)c4cc(O)cc(O)c4-c4cc3ccc4O)[C@H](O)c3ccc(c(Cl)c3)Oc3cc2cc(c3O[C@@H]2O[C@H](CO)[C@@H](O)[C@H](O)[C@H]2O[C@H]2C[C@](C)(N)[C@H](O)[C@H](C)O2)Oc2ccc(cc2Cl)[C@H]1O [Vancomycin],overall response success rate,[2],50.0%
same,MIC,[3],> 128 µg/mL
same,MIC,[3]; Escherichia coli,> 128 µg/mL
same,MIC,"[3]; Escherichia coli, ATCC25922",> 128 µg/mL
same,MIC,[3]; Proteus vulgaris ATCC 881,> 128 µg/mL
same,MIC,[4]; Candida albicans SKF2270 (Table 44),>128 µg/mL
same,MIC,"[4]; Candida albicans, SKF2270",> 128 µg/mL
same,MIC,[5]; Bacillus subtilis ATCC 6633,≤ 0.125 µg/mL
same,MIC,[5]; [9],1 µg/mL
same,MIC,[5]; [10],2 µg/mL
same,MIC,[5]; [11],1 µg/mL
same,MIC,[5]; [12],2 µg/mL
same,MIC,[5]; [13],2 µg/mL
same,MIC,"[5]; Streptococcus pneumoniae, UC41",0.5 µg/mL
same,MIC,[5]; Streptococcus pyogenes,1 µg/mL
same,ED50,"Staph. aureus; Staphylococcus aureus, MRSA, sc, 10 min",1 mg/kg
same,ED50,"Staph. aureus; Staphylococcus aureus, MSSA, sc, 10 min",1.7 mg/kg
same,Kass,"[6]; T 10 ° C., [HSA] 0 μM",690000 M⁻¹
same,Kass,"[6]; T 25 ° C., [HSA] 0 μM",340000 M⁻¹ and 360000 M⁻¹
same,Kass,"[6]; T 25 ° C., with HSA 513 μM",290000 M⁻¹
same,binding to dipeptide (D-Ala-D-Ala) or to Lys-D-Ala-D-Lactate,[6]; absence of serum proteins,no evidence of binding
same,Kd,"[6]; T 10 ° C., [HSA] 0 μM",1450 nM
same,Kd,"[6]; T 25 ° C., [HSA] 0 μM",2940 nM and 2780 nM
same,Kd,"[6]; T 25 ° C., with HSA 513 μM",3450 nM
same,patients with AEs that led to discontinuation of study drug,"CR-BSI trial: safety; human, intravenous",8.8%
same,SAE considered to be related to study drug,CR-BSI trial: safety,one SAE
same,Quality control range of MICs for reference strains,gram positive bacteria [7]; E. faecalis ATCC29212 ref. strain,^2VA 1-4 mg/L
same,Quality control range of MICs for reference strains,gram positive bacteria [7]; S. aureus ATCC 29213 ref. strain,^1VA 0.5-2 mg/L
same,MIC,gram-negative bacteria,> 128 µg/mL
same,MIC,gram-negative bacteria; Escherichia coli,> 128 µg/mL
same,MIC,"gram-negative bacteria; Escherichia coli, ATCC25922",> 128 µg/mL
same,MIC,gram-negative bacteria; Proteus vulgaris ATCC 881,> 128 µg/mL
same,MIC,gram positive bacteria [8],1 µg/mL
same,MIC,gram positive bacteria [8]; Bacillus subtilis ATCC 6633,≤ 0.125 µg/mL
same,MIC,gram positive bacteria [8]; [9],1 µg/mL
same,MIC,gram positive bacteria [8]; [10],2 µg/mL
same,MIC,gram positive bacteria [8]; [11],1 µg/mL
same,MIC,gram positive bacteria [8]; [12],2 µg/mL
same,MIC,gram positive bacteria [8]; [13],2 µg/mL
same,MIC,"gram positive bacteria [8]; Streptococcus pneumoniae, UC41",0.5 µg/mL
same,MIC,"S aureus; Staphylococcus aureus, MRSA Staph. aureus 3817, read-out: MIC",0.5 µg/mL
same,MIC,"S aureus; Staphylococcus aureus, MSSA Staph. aureus Smith 819, read-out: MIC",0.5 µg/mL
